The results in this text go back to patent US20120100077A1, “MIXTURE OF AMPHIPATHIC MOLECULES AND METHOD FOR MODIFYING CELL MEMBRANES BY MEANS OF FUSION” (priority 2009, published 2012).

Like-named read-outs stand apart in the source and are kept apart here.

Series [1] concerns cell membrane. Nature of the series: Fusion quality of R groups bound to amphipathic molecules B in the fusion mixture.
Experimental: (§1) After homogenization in the organic solvent, the organic solvent should be removed.
(§2) The dried mixture is taken up in an aqueous buffer solution, preferably having a pH value of 7, and is homogenized once more. Advantageously a liposome forms, which comprises the molecule types that were added. Molecules of molecule types E and F can likewise be added.
(§3) According to the actual method, the fusion mixture is diluted with a cell medium, e.g. 1:100 (mixture:cell medium v/v), homogenized once more, and added to the cells.
(§4) To this end it is sufficient for the cells to be brought in contact with the mixture for approximately 1 to 60 minutes, and in the case of tissue samples, for 60 to 120 minutes, for example. A cell washing step should then be incorporated.
In series [2] the test system is cell membrane.
Experimental: as §1, §2, §3, §4
The mark [3] stands for this setting: R group covalently bound to lipid (molecule type B).

In the case of `CCCCCCCC/C=C\CCCCCCCC(=O)OC[C@H](COP(=O)(O)OCCNC(=O)CCCCCNC(=O)CCCCC1SCC2NC(=O)NC21)OC(=O)CCCCCCC/C=C\CCCCCCCC` (stereo partly drawn) [capBiotin, 1,2-dioleoyl-sn-glycero-3-phosphoethanolamine-N-cap-biotin], in the series with cell membrane [1], the Fusion quality turned out to be 6 and the “function as fusion-inducing molecule type B” value was “do not, however, function”.

On to `CCCCCCCC/C=C\CCCCCCCC(=O)OC[C@H](COP(=O)(O)OCCNC(=O)OCCOCCOCCOCCOCCOCCOCCOCCOCCOCCOCCOCCOCCOCCOCCOCCOCCOCCOCCOCCOCCOCCOCCOCCOCCOCCOCCOCCOCCOCCOCCOCCOCCOCCOCCOCCOCCOCCOCCOCCOCCOCCOCCOCCOCCOC)OC(=O)CCCCCCC/C=C\CCCCCCCC.N` [PEG(2000), 1,2-dioleoyl-sn-glycero-3-phosphoethanolamine-N-[methoxy(polyethylene glycol)-2000](ammonium salt)], for which, in the series with cell membrane [1] (setting [3]), the Fusion quality worked out at 6 and the “toxic” value was “toxic”.

For `c1cc2ccc3cccc4ccc(c1)c2c34` [pyrene], the “toxic” value with cell membrane [2] was 5(toxic).

On to `CCCCCCCC/C=C\CCCCCCCC(=O)OC[C@H](COP(=O)(O)OCCNS(=O)(=O)c1ccc(-c2c3ccc(N(CC)CC)cc3[o+]c3cc(N(CC)CC)ccc23)c(S(=O)(=O)[O-])c1)OC(=O)CCCCCCC/C=C\CCCCCCCC.CCN(CC)CC` [LR, Lissamine rhodamine B 1,2-diolenoyl-sn-glycero-3-phosphoethanolamine, (triethylammonium salt)], for which, in the series on cell membrane [1], the Fusion quality is listed as 1.

`CCCCCCCC/C=C\CCCCCCCC(=O)OC[C@H](COP(=O)(O)OCCNc1ccc([N+](=O)[O-])c2nonc12)OC(=O)CCCCCCC/C=C\CCCCCCCC.CCN(CC)CC` [NBD, N-(7-nitrobenz-2-oxa-1,3-diazol-4-yl)-1,2-diolenoyl-sn-glycero-3-phosphoethanolamine (triethylammonium salt)]: the Fusion quality in the series on cell membrane [1] came out at 2.

For “Texas Red 1,2-dihexadecanoyl-sn-glycero-3-phosphoethanolamine (triethylammonium salt) [Texas-Red]”, the Fusion quality in the series with cell membrane [1] (setting [3]) came out at 1.

For `CCCCC/C=C\C/C=C\C/C=C\C/C=C\CCCC(=O)O[C@H](COC(=O)CCCCCCCCCCCCCCCCC)COP(=O)([O-])O[C@H]1C(O)C(O)C(O)[C@@H](O)C1O.[Na+]` (stereo partly drawn) [inositol, L-α-phosphatidylinositol (sodium salt)], in the series with cell membrane [1], the “function as fusion-inducing molecule type B” value was “non-functional”. In addition, in the series with cell membrane [1] (setting [3]), the Fusion quality is given as 6 and the “toxic” value is recorded as “toxic”.

Regarding `CCCCCCCCCCCCCCCCCCN1C(=CC=Cc2oc3ccccc3[n+]2CCCCCCCCCCCCCCCCCC)Oc2ccccc21.[O-][Cl+3]([O-])([O-])[O-]` [DiO per se, DiOC18(3)3,3′-dioctadecyloxacarbocyanine perchlorate], the Fusion quality with cell membrane [1] (setting [3]) came to 1.
